# Source: patent EP4806900A2, “RAS INHIBITORS” (Revolution Medicines, Inc., priority 2019, dated 2021)
# Values joined by “and” are separate entries in the source; they are usually repeats but may differ in a detail not shown here. Equal values may be shown once.
# Tested on: NCI-H358 (K-Ras G12C)
# Assay: CellTiter-Glo cell viability assay, NCI-H358
# Assay type: cell-based, human
# Settings: Homo sapiens, NCI-H358, Table 5; read-out: H358 Cell Viability assay data (K-Ras G12C, IC50)
# Procedure, shortened: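 Compounds dispensed directly onto plated NCI-H358 cells; plates equilibrated to room temperature on day 5 before luminescence read-out. Signal normalized to mean DMSO control (%) and fitted by four-parameter logistic.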
row,Compound,IC50 [µM]
1,C=CC(=O)N1CC[C@H](C(=O)N(C)[C@H](C(=O)N[C@H]2C[C@H]3CN(CCO3)c3ccc4c(c3)c(c(-c3cccnc3[C@H](C)OC)n4CC)CC(C)(C)COC(=O)[C@@H]3CCCN(N3)C2=O)C(C)C)C1 [Compound A378],0.1 to 1
2,C=CC(=O)N1CC[C@H](C(=O)N(C)[C@H](C(=O)N[C@H]2CC3=NN=C(O3)c3ccc4c(c3)c(c(-c3cccnc3[C@H](C)OCC)n4CC(F)(F)F)CC(C)(C)COC(=O)[C@@H]3CCCN(N3)C2=O)C(C)C)C1 [Compound A424],0.1 to 1
3,CO[C@@H](C)c1ncccc1-c1c2c3cc(ccc3n1CC(F)(F)F)-c1nnc(o1)C[C@H](NC(=O)[C@H](C(C)C)N(C)C(=O)[C@H]1CCN(C(=O)C#CC(C)(C)N3CCC3)C1)C(=O)N1CCC[C@H](N1)C(=O)OCC(C)(C)C2 [Compound A423],0.01 to 0.1
4,"CCn1c(-c2cccnc2[C@H](C)OC)c2c3cc(ccc31)-c1cccc(c1)C[C@H](NC(=O)[C@H](C1CCCC1)N(C)C(=O)[C@@H]1CN(C(=O)C#CC(C)(C)N(C)C)C[C@@H]1C)C(=O)N1CCC[C@H](N1)C(=O)OCC(C)(C)C2 (atropisomer, axis not shown) [Compound A391]",< 0.01

# Same assay, conditions: Homo sapiens, NCI-H358, read-out: H358 Cell Viability assay data (K-Ras G12C, IC50, uM), Table 5
row,Compound,IC50 [µM]
1,CCn1c(-c2cccnc2[C@H](C)OC)c2c3cc(ccc31)-c1cccc(c1)C[C@H](NC(=O)[C@H](C(C)C)N(C)C(=O)[C@H]1CCN(C(=O)C#CC(C)(C)N3CCC(F)(F)C3)C1)C(=O)N1CCC[C@H](N1)C(=O)OCC(C)(C)C2 (relative stereo) [Compound A325],0.1 to 1
2,CO[C@@H](COC1CN(C(=O)C#CC(C)(C)N(C)C)C1)C(=O)N[C@H]1Cc2cccc(c2)-c2ccc3c(c2)c(c(-c2cccnc2[C@H](C)OC)n3CC(F)(F)F)CC(C)(C)COC(=O)[C@@H]2CCCN(N2)C1=O [Compound A556],< 0.01
3,CCn1c(-c2cccnc2COC)c2c3cc(ccc31)-c1cc(O)cc(c1)C[C@H](NC(=O)[C@H](C(C)C)N(C)C(=O)[C@H]1CCN(C(=O)/C=C\CN(C)C)C1)C(=O)N1CCC[C@H](N1)C(=O)OCC(C)(C)C2 [Compound A161],> 1

# Same assay, conditions: Table 5; read-out: H358 Cell Viability assay data (K-Ras G12C, IC50)
row,Compound,IC50
1,C=CC(=O)N1CC[C@H](C(=O)N(C)[C@H](C(=O)N[C@H]2Cc3cc(cc(O)c3F)-c3ccc4c(c3)c(c(-c3ccccc3CCOC)n4CC)CC(C)(C)COC(=O)[C@@H]3CCCN(N3)C2=O)C(C)C)C1 [Compound A9],0.1 to 1 µM
2,C=CC(=O)N1CC[C@H](C(=O)N(C)[C@H](C(=O)N[C@H]2Cc3cc(O)cc(c3)-c3ccc4c(c3)c(c(-c3ccc(CN(C)C)cc3)n4CC)CC(C)(C)COC(=O)[C@@H]3CCCN(N3)C2=O)C(C)C)C1 [Compound A3],0.1 to 1 µM
3,C=CC(=O)N1CCN(C(=O)N(C)[C@H](C(=O)N[C@H]2Cc3cc(O)cc(c3)-c3ccc4c(c3)c(c(-c3ccccc3CCOC)n4CC)CC(C)(C)COC(=O)[C@@H]3CCCN(N3)C2=O)C(C)C)CC1 [Compound A18],0.1 to 1 µM
4,CCn1c(-c2ccccc2COC)c2c3cc(ccc31)-c1cc(O)cc(c1)C[C@H](NC(=O)[C@H](C(C)C)N(C)C(=O)[C@H]1CCN(C(=O)/C=C/CN(C)C)C1)C(=O)N1CCC[C@H](N1)C(=O)OCC(C)(C)C2 [Compound A79],0.01 to 0.1 µM
5,C=CC(=O)N1C[C@H](C)[C@H](C(=O)N(C)[C@H](C(=O)N[C@H]2Cc3cc(O)cc(c3)-c3ccc4c(c3)c(c(-c3ccccc3CCOC)n4CC)CC(C)(C)COC(=O)[C@@H]3CCCN(N3)C2=O)C(C)C)C1 [Compound A41],0.01 to 0.1 µM
6,C=CC(=O)N1CC[C@H](C(=O)N(C)[C@H](C(=O)N[C@H]2Cc3cc(O)cc(c3)-c3ccc4c(c3)c(c(-c3ccccc3CN(C)C)n4CC)CC(C)(C)COC(=O)[C@@H]3CCCN(N3)C2=O)C(C)C)C1 [Compound A5],0.01 to 0.1 µM
7,"CCn1c(-c2cccnc2COC)c2c3cc(ccc31)-c1cc(O)cc(c1)C[C@H](NC(=O)[C@H](C(C)C)N(C)C(=O)[C@H]1CCN(C(=O)/C=C/CN(C)C)C1)C(=O)N1CCC[C@H](N1)C(=O)OCC(C)(C)C2 [Compound A54, (2S)-2-{1-[(3S)-1-[(2E)-4-(dimethylamino)but-2-enoyl]pyrrolidin-3-yl]-N-methylformamido}-N-[(8S,14S)-22-ethyl-4-hydroxy-21-[2-(methoxymethyl)pyridin-3-yl]-18,18-dimethyl-9,15-dioxo-16-oxa-10,22,28-triazapentacyclo[18.5.2.1^2,^6.1^10,^14.0^23,^27]nonacosa-1(26),2,4,6(29),20,23(27),24-heptaen-8-yl]-3-methylbutanamide]",0.01 to 0.1 µM
8,"C=CC(=O)N1CC2(CCN2C(=O)N(C)[C@H](C(=O)N[C@H]2Cc3cccc(c3)-c3ccc4c(c3)c(c(-c3cccnc3[C@H](C)OC)n4CC)CC(C)(C)COC(=O)[C@@H]3CCCN(N3)C2=O)C(C)C)C1 (atropisomer, axis not shown) [Compound A684]",< 0.01 µM
9,C=CC(=O)N1CC[C@H](C(=O)N(C)[C@H](C(=O)N[C@H]2Cc3cc(O)cc(c3)-c3ccc4c(c3)c(c(-c3ccccc3OC)n4CC)CC(C)(C)COC(=O)[C@@H]3CCCN(N3)C2=O)C(C)C)C1 [Compound A17],0.1 to 1 µM
10,"CC#CC(=O)N1CC[C@H](C(=O)N(C)[C@H](C(=O)N[C@H]2Cc3cc(O)cc(c3)-c3ccc4c(c3)c(c(-c3cccnc3[C@H](C)OC)n4CC)CC(C)(C)COC(=O)[C@@H]3CCCN(N3)C2=O)C(C)C)C1 [Compound A145, (2S)-2-{1-[(3S)-1-(but-2-ynoyl)pyrrolidin-3-yl]-N-methylformamido}-N-[(8S,14S,20M)-22-ethyl-4-hydroxy-21-{2-[(1S)-1-methoxyethyl]pyridin-3-yl}-18,18-dimethyl-9,15-dioxo-16-oxa-10,22,28-triazapentacyclo[18.5.2.1^2,^6.1^10,^14.0^23,^27]nonacosa-1(26),2,4,6(29),20,23(27),24-heptaen-8-yl]-3-methylbutanamide]",< 0.01 µM and 0.01 to 0.1 µM
11,CCn1c(-c2cnccc2COC)c2c3cc(ccc31)-c1cc(O)cc(c1)C[C@H](NC(=O)[C@H](C(C)C)N(C)C(=O)[C@H]1CCN(C(=O)/C=C/CN(C)C)C1)C(=O)N1CCC[C@H](N1)C(=O)OCC(C)(C)C2 [Compound A87],0.01 to 0.1 µM
12,C=CC(=O)N1CC[C@H](C(=O)N(C)[C@H](C(=O)N[C@H]2Cc3cc(O)cc(c3)-c3ccc4c(c3)c(c(-c3cncc(C#N)c3)n4CC)CC(C)(C)COC(=O)[C@@H]3CCCN(N3)C2=O)C(C)C)C1 [Compound A62],0.01 to 0.1 µM
13,CCn1c(-c2ccccc2CN(C)C)c2c3cc(ccc31)-c1cc(O)cc(c1)C[C@H](NC(=O)[C@H](C(C)C)N(C)C(=O)[C@H]1CCN(C(=O)/C=C/CN(C)C)C1)C(=O)N1CCC[C@H](N1)C(=O)OCC(C)(C)C2 [Compound A47],0.01 to 0.1 µM
14,C=CC(=O)N1CC(C(=O)N(C)[C@H](C(=O)N[C@H]2Cc3cc(O)cc(c3)-c3ccc4c(c3)c(c(-c3cccnc3COC)n4CC)CC(C)(C)COC(=O)[C@@H]3CCCN(N3)C2=O)C(C)C)C1 [Compound A70],0.01 to 0.1 µM
15,CCn1c(-c2ccccc2CN(C)C)c2c3cc(ccc31)-c1cc(O)cc(c1)C[C@H](NC(=O)[C@H](C(C)C)N(C)C(=O)c1ccc(NC(=O)/C=C/CN(C)C)cc1)C(=O)N1CCC[C@H](N1)C(=O)OCC(C)(C)C2 [Compound A49],> 1 µM
16,C=CC(=O)N1CC[C@H](C(=O)N(C)[C@H](C(=O)N[C@H]2Cc3cc(O)cc(c3)-c3ccc4c(c3)c(c(-c3cc(F)cnc3COC)n4CC)CC(C)(C)COC(=O)[C@@H]3CCCN(N3)C2=O)C(C)C)C1 [Compound A82],0.01 to 0.1 µM

# Same assay, conditions: read-out: H358 Cell Viability assay data (K-Ras G12C, IC50); Table 5
row,Compound,IC50 [µM]
1,C=CC(=O)Nc1ccc(C(=O)N(C)[C@H](C(=O)N[C@H]2Cc3cc(O)cc(c3)-c3ccc4c(c3)c(c(-c3cccnc3[C@H](C)OC)n4CC)CC(C)(C)COC(=O)[C@@H]3CCCN(N3)C2=O)C(C)C)cn1 [Compound A336],< 0.01
